In PubChem BioAssay (NCI):
Values joined by “and” are separate entries in the source; they are usually repeats but may differ in a detail not shown here. Equal values may be shown once.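 Five compound concentrations were applied to cells in 96-well plates for 48 hours; endpoints were derived by simple linear interpolation of the resulting dose-response curve. GI50 is the concentration that inhibits growth by half. TGI is the concentration that stops growth completely.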

Key:
Assay in all cases: NCI-60 cell line screen, 48 h
HCC-2998 colon = system: HCC-2998 colon
HCT-116 colon = system: HCT-116 colon
IGROV1 ovarian = system: IGROV1 ovarian
KM12 colon = system: KM12 colon
MDA-MB-231 breast = system: MDA-MB-231 breast
OVCAR-3 ovarian = system: OVCAR-3 ovarian
OVCAR-5 ovarian = system: OVCAR-5 ovarian
SK-MEL-28 melanoma = system: SK-MEL-28 melanoma
TK-10 renal = system: TK-10 renal
UACC-62 melanoma = system: UACC-62 melanoma

| Compound | GI50 (HCC-2998 colon) | TGI (HCC-2998 colon) | GI50 (HCT-116 colon) | TGI (HCT-116 colon) | GI50 (IGROV1 ovarian) | TGI (IGROV1 ovarian) [µM] | GI50 (KM12 colon) | TGI (KM12 colon) | GI50 (MDA-MB-231 breast) | TGI (MDA-MB-231 breast) | GI50 (OVCAR-3 ovarian) | TGI (OVCAR-3 ovarian) | GI50 (OVCAR-5 ovarian) | TGI (OVCAR-5 ovarian) | GI50 (SK-MEL-28 melanoma) | TGI (SK-MEL-28 melanoma) [µM] | GI50 (TK-10 renal) | TGI (TK-10 renal) | GI50 (UACC-62 melanoma) | TGI (UACC-62 melanoma) [µM] |
| --- | --- | --- | --- | --- | --- | --- | --- | --- | --- | --- | --- | --- | --- | --- | --- | --- | --- | --- | --- | --- |
| CC[C@]12C=CCN3CC[C@@]4(c5ccc(OC)cc5N(C)[C@H]4[C@@](O)(C(=O)OC)[C@@H]1OC(=O)CCC(=O)O[C@H]1CC[C@H]4[C@@H]5CCC6=CC(=O)CC[C@@H]6[C@H]5CC[C@]14C)[C@@H]32 | 1.98 µM | > 50 µM | 1.55 µM | > 50 µM | 0.973 µM | 3.13 | 1.88 µM | > 50 µM | 2.21 µM | > 50 µM | 1.73 µM | 31.9 µM | 1.9 µM | > 50 µM | 2.17 µM | > 50 | 1.91 µM | > 50 µM | 1.12 µM | 3.13 |
| CS(=O)(=O)Nc1cc(-c2ccc3ncc(C#N)c(Nc4ccc(F)c(Cl)c4)c3c2)cnc1Cl | 0.382 µM | 1.55 µM | 0.0486 µM |  | 0.0609 µM | 0.372 | 0.276 µM | 1.91 µM | 0.237 µM | 0.786 µM | 0.0657 µM | 0.909 µM | 0.308 µM | 2.29 µM | 0.133 µM | 1.47 | 0.166 µM | 0.793 µM | 0.073 µM | 0.596 |
| COc1ccc(OC)c(C2=C(c3cn(C)c4ccccc34)C(=O)NC2=O)c1 | > 25 µM | > 25 µM | > 25 µM | > 25 µM | > 25 µM | > 25 | 22.4 µM | > 25 µM | > 25 µM | > 25 µM | > 25 µM | > 25 µM | > 25 µM | > 25 µM | > 25 µM | > 25 | > 25 µM | > 25 µM | > 25 µM | > 25 |
| CN1C(=O)C(N=Nc2ccc([N+](=O)[O-])cc2)SC1=S (stereo not given) | 3.21 µM and 6.71 µM | 48.2 µM and 49.6 µM | 3.65 µM and 6.79 µM | 29 µM and 66.3 µM | 1.99 µM and 11.4 µM |  | 1.81 µM and 2.53 µM | 17.4 µM and > 100 µM | 13.3 µM and 11.7 µM | 51 µM and 44.3 µM | 2.7 µM and 10.9 µM | 12.9 µM and 71.9 µM | 10.6 µM and 15.4 µM | > 100 µM and 99.6 µM | 11.6 µM and 27.2 µM | > 100 | 12.6 µM and 5.87 µM | 79.7 µM and > 100 µM | 3.29 µM and 2.85 µM | > 100 |
| CCOc1cc(Cl)c(C(C)NC(=O)c2cccc(OC)c2)cc1OCC (stereo not given) | 28.8 µM | > 100 µM | 4.48 µM | > 100 µM | 17.5 µM | > 100 | 7.19 µM | > 100 µM | 11.1 µM | > 100 µM | 4.19 µM | 29.4 µM | > 52.7 µM | > 100 µM | 16.5 µM | > 100 | 28.6 µM | > 100 µM | 8.81 µM | > 100 |
| CCOC(=O)C#Cc1cccc(C#CC(=O)OCC)c1 |  | 2.1 µM |  | 7.1 µM |  | 32.5 |  | 15.2 µM |  | 11.2 µM |  | 13.4 µM |  | 2.4 µM |  | 9.99 |  | 10.6 µM |  | 9.53 |
| Cc1ccc(NC(=S)NNC(=S)Nc2ccc(C)cc2)cc1 | 15.5 µM | > 100 µM | 3.81 µM | > 100 µM | 6.24 µM | > 100 | 3.63 µM | > 100 µM | 65.4 µM | > 100 µM | 2.9 µM | 7.51 µM | > 100 µM | > 100 µM | 8.39 µM | > 100 | 18.2 µM | > 100 µM | 5.17 µM | > 100 |
| COc1cccc2nc(Nc3cccc(NC(=O)c4ccc(N5CCN(C)CC5)c(C(F)(F)F)c4)c3)ccc12 | 0.95 µM | 1.78 µM | 0.869 µM | 1.89 µM | 1.25 µM | 4.24 | 1.09 µM | 2.56 µM | 1.55 µM | 5.88 µM | 1.21 µM | 3.07 µM | 1.53 µM | 4.99 µM | 0.896 µM | 1.64 | 2.01 µM | 6.62 µM | 1.06 µM | 2.28 |
| CCCCCCCCCCCCCCCC(=O)NS(=O)(=O)OC[C@H]1O[C@@H](n2cnc3c(N)ncnc32)[C@H](O)[C@@H]1O | < 0.0192 µM | < 0.038 µM | 0.0719 µM | 1.21 µM | 0.0371 µM | 0.199 | < 0.0421 µM | 3.01 µM | 0.381 µM | 1.71 µM |  | 0.124 µM | < 0.0158 µM | < 0.0339 µM |  | 1.66 | < 0.0163 µM | < 0.0259 µM | 0.215 µM | 0.599 |
| CC(C)C[C@H](NC(=O)[C@@H](Cc1ccccc1)n1ccc(Nc2ccccc2)cc1=O)B(O)O | 0.353 µM | 1.36 µM | 0.257 µM | 1.23 µM | 1.33 µM | 27.9 | 0.375 µM | 1.51 µM | 0.595 µM | 4.37 µM | 0.233 µM | 0.561 µM | 1.7 µM | 8.34 µM | 0.349 µM | 2.98 | 0.269 µM | 0.98 µM | 0.333 µM | 1.41 |
| CC1(C)CC[C@]23CC[C@]4(C)[C@H](CC[C@@H]5[C@@]6(C)CCCNC(C)(C)[C@@H]6CC[C@]54C)[C@H]2[C@H]1OC3 | 1.54 µM | 2.97 µM | 1.52 µM | 2.88 µM | 1.79 µM | 3.48 |  |  | 1.66 µM | 3.2 µM | 1.62 µM | 3.1 µM | 1.6 µM | 3.04 µM | 1.66 µM | 3.18 | 1.89 µM | 3.61 µM | 1.79 µM | 3.21 |
| COc1ccc(-c2cc(=O)c3c(OC)c4ccoc4c(/C=C/C=O)c3o2)cc1 | 13.7 µM | 27.8 µM | 1.06 µM | 3.43 µM | 13.6 µM | > 100 | 12.3 µM | 25.7 µM | 4.22 µM | 85.3 µM | 3.92 µM | 25.3 µM | 11.7 µM | 46.8 µM | 2.52 µM | 7.1 |  |  | 1.77 µM | 5.11 |
| O=C(Cc1cc(O)ccc1O)NO | > 100 µM | > 100 µM | 18 µM | 32.4 µM | > 100 µM | > 100 | > 100 µM | > 100 µM | 19.9 µM | 47 µM | 16.9 µM | 33.3 µM | 18.7 µM | 34.1 µM |  |  | 57.6 µM | > 100 µM | 24.7 µM | 63.3 |
